In US20220009920A1 (GB005, Inc., priority 2020, published 2022):

Assays:
Test in all cases: Large panel kinase profiling
Type in all cases: biochemical
Conditions in all cases: 1 μM test article, 1 mM ATP
[1] = target: T1, GAK (Homo sapiens, UniProt O14976)
T1 construct: AssayQuant Technologies, Inc. (service provider)
T1 sequence (O14976 1-1311): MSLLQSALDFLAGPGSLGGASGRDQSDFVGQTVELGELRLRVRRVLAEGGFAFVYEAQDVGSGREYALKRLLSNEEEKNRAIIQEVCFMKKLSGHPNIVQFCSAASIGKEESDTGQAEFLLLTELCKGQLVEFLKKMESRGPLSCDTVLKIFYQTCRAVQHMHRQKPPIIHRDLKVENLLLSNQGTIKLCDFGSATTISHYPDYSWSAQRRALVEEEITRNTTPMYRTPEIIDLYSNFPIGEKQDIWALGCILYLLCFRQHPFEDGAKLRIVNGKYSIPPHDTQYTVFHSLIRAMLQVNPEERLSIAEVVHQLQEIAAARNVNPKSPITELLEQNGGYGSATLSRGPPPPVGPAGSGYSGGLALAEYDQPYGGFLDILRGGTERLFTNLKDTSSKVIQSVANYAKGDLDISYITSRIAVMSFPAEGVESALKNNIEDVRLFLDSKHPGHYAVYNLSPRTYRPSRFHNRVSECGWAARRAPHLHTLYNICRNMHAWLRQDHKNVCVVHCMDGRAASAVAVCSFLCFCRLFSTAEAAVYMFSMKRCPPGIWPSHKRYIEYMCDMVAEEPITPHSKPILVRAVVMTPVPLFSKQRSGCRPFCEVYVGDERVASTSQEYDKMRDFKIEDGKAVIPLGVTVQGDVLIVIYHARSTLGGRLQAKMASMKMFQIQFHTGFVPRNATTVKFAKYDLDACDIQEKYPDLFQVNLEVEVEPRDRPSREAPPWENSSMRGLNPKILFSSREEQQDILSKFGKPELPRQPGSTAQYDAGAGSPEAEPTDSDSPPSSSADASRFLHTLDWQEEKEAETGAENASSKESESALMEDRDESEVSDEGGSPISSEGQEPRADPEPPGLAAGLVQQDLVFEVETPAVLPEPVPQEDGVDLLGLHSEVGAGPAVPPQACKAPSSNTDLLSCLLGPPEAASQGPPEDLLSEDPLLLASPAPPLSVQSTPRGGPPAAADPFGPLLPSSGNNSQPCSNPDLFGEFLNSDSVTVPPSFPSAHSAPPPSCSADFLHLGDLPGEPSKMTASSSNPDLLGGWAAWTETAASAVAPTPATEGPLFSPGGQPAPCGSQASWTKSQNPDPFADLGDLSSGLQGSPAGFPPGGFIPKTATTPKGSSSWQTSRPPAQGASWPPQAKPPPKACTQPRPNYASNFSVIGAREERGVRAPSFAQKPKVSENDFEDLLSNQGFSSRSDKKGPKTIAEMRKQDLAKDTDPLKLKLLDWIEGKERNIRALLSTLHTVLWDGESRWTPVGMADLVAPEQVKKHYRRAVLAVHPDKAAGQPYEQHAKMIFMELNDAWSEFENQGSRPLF
In short: (§1)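 Reactions contain 1 mM ATP and 1 μM test article; the CSox peptide sensor reports phosphorylation as fluorescence gain. Temperature is held at 30° C. while signal (360 nm excitation, 485 nm emission) is recorded every 1 min.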

[2] = target: T2, MARK3 (Homo sapiens, UniProt P27448)
T2 construct: AssayQuant Technologies, Inc. (assay service)
T2 sequence (P27448 whole entry, species assumed): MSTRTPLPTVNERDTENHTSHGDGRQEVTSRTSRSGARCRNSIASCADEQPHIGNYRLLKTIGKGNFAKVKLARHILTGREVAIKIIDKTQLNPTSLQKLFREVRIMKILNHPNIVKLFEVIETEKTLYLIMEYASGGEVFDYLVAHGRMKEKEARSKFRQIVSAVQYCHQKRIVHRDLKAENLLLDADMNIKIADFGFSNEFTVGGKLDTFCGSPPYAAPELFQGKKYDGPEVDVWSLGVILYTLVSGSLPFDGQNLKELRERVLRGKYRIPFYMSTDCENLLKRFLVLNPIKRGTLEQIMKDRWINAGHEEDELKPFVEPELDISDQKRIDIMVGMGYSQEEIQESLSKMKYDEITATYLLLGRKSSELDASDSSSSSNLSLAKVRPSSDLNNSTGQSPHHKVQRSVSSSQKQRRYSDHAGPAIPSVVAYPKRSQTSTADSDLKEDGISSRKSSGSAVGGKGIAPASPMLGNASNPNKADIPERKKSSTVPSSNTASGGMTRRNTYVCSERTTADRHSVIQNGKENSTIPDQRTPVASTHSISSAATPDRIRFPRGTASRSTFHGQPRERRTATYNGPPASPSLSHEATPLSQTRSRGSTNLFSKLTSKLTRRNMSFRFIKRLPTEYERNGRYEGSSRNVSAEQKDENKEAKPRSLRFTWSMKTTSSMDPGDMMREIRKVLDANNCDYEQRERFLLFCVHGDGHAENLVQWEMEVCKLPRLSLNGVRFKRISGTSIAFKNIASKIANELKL
In short: as §1

[3] = target: T3, NEK2 (Homo sapiens, UniProt P51955)
T3 construct: AssayQuant Technologies, Inc. (assay service)
T3 sequence (P51955 1-445): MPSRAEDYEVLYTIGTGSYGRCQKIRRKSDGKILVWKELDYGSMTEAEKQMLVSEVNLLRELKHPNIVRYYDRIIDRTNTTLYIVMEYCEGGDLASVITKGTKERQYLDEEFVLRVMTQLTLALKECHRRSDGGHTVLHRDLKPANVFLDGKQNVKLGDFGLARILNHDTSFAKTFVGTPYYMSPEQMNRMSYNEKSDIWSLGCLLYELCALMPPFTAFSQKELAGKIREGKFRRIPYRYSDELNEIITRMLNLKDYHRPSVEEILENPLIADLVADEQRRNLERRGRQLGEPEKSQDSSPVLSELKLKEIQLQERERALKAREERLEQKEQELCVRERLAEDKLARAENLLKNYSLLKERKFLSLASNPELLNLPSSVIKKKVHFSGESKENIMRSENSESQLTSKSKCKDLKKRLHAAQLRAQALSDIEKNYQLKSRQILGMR
In short: as §1

[4] = target: T4, STK33 (Homo sapiens, UniProt Q9BYT3)
T4 construct: AssayQuant Technologies, Inc. (contract assay)
T4 sequence (Q9BYT3 whole entry, species assumed): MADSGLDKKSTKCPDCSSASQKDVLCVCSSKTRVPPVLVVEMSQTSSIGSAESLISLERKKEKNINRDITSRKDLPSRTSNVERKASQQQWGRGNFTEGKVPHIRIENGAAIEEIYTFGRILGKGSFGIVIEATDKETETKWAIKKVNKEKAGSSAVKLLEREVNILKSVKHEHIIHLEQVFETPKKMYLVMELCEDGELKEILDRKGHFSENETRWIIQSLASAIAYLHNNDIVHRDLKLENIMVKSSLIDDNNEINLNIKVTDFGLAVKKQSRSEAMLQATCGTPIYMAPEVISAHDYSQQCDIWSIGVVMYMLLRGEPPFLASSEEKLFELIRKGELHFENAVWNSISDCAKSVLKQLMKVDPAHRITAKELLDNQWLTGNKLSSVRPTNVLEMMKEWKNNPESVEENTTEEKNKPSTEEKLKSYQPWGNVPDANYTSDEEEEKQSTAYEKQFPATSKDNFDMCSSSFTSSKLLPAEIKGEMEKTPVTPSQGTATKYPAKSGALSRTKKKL
In short: as §1

[5] = target: LYNA (Homo sapiens, UniProt P07948)
Sequence of LYNA (P07948 whole entry, species assumed): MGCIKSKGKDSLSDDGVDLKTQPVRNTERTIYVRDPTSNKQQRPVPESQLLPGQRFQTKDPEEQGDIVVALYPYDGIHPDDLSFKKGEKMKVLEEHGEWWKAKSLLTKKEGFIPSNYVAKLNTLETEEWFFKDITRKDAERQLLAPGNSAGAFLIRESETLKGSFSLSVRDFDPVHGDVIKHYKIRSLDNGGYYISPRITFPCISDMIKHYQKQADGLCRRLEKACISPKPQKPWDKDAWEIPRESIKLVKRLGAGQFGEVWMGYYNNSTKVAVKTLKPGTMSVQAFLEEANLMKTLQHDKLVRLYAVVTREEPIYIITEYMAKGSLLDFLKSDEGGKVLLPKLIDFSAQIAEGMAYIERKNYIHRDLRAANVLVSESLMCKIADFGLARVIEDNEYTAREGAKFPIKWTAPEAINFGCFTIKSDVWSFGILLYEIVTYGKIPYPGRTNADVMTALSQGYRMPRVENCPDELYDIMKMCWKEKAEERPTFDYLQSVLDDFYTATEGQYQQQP
In short: as §1

[6] = target: T5, CDK7 (Homo sapiens, UniProt P50613)
T5 construct: AssayQuant Technologies, Inc. (ran the panel)
T5 sequence (P50613 whole entry, species assumed): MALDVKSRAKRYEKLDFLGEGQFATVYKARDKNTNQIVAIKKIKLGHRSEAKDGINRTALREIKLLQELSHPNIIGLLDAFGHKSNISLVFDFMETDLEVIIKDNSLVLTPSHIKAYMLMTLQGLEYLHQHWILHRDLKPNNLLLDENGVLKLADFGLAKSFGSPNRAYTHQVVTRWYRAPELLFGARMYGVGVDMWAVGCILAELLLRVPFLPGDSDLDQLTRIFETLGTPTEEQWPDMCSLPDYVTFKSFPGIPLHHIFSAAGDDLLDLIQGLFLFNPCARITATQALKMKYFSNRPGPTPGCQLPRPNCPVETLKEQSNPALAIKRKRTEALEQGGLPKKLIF
T5 sequence (P51946 whole entry partner, species assumed): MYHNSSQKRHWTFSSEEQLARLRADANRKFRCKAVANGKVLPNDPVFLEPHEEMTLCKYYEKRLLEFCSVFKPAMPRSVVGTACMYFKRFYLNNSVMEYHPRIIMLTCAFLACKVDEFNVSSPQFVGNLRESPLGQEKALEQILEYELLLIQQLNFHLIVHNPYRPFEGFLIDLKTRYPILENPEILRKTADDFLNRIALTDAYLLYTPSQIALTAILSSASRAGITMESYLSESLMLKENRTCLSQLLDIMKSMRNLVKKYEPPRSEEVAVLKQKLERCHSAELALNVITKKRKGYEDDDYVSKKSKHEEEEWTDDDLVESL
T5 sequence (P51948 whole entry partner, species assumed): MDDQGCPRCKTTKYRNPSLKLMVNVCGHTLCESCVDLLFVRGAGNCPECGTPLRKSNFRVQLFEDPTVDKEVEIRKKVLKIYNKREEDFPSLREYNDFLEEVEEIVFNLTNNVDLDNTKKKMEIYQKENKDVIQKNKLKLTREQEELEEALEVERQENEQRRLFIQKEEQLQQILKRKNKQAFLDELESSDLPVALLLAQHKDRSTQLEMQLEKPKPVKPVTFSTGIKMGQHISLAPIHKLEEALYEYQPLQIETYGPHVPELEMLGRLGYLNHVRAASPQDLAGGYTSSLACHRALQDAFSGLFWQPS
In short: as §1

[7] = target: KIT (Homo sapiens, UniProt P10721)
Sequence of KIT (P10721 26-976, species assumed): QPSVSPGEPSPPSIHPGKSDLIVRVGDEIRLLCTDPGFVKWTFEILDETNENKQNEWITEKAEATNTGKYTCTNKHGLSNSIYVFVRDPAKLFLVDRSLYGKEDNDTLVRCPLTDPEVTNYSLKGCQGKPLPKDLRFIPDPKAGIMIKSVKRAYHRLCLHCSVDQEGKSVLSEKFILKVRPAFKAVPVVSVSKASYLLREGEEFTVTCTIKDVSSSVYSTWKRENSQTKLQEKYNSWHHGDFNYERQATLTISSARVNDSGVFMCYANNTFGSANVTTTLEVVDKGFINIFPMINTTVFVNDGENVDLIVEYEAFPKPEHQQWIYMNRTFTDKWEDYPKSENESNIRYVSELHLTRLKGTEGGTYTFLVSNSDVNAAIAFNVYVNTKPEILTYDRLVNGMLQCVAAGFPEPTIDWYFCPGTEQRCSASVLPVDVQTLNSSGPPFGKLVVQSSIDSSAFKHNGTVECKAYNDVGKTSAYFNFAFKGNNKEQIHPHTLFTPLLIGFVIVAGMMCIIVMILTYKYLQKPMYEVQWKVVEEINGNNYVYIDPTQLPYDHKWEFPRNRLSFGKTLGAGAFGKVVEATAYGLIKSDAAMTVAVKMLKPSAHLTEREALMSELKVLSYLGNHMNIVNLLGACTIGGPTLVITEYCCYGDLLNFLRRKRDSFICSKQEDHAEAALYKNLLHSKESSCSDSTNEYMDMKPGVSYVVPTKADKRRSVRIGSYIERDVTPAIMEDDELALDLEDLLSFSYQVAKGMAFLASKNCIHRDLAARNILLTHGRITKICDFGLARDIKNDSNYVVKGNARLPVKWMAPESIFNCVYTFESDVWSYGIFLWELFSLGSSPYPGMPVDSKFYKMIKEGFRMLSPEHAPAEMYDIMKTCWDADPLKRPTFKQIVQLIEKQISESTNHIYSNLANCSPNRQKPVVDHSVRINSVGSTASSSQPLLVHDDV
In short: as §1

[8] = target: MAP3K10 (Homo sapiens, UniProt Q02779)
Sequence of MAP3K10 (Q02779 whole entry, species assumed): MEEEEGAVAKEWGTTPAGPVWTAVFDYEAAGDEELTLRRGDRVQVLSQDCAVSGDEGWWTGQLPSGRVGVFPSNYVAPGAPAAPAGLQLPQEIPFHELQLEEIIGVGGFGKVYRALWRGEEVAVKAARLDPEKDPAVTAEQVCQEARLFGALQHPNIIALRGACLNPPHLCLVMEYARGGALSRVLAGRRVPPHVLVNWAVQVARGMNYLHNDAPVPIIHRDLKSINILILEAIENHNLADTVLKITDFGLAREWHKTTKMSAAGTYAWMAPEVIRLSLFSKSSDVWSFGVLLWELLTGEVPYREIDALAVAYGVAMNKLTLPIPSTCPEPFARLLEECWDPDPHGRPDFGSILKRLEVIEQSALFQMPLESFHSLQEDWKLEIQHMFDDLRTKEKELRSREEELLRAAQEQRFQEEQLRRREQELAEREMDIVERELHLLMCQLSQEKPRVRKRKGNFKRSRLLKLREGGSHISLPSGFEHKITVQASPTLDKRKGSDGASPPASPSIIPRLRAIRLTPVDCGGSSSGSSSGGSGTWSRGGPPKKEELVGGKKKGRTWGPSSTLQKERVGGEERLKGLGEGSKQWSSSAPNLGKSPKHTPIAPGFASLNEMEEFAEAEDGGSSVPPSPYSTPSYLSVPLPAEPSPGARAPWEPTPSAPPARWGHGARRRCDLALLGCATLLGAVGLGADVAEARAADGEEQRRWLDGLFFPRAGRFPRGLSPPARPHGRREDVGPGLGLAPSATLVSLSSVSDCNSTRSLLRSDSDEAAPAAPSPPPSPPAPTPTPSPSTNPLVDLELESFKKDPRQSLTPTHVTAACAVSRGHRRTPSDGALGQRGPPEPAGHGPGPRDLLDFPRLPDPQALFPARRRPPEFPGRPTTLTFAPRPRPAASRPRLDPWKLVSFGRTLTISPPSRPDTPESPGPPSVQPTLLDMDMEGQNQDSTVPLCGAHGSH
In short: as §1

Compound | inhibition at 1 µM [1] | inhibition at 1 µM [2] | inhibition at 1 µM [3] | inhibition at 1 µM [4] | inhibition at 1 µM [5] | inhibition at 1 µM [6] | inhibition at 1 µM [7] | inhibition at 1 µM [8]
C=CC(=O)N1CCCC(c2c(F)cc(C(N)=O)c3[nH]c4c(c23)CCCCC4)C1 (single isomer, unassigned) [Compound 5-6] | 17.9% | 1.6% | -26.5% | -7.9% | -2.9% | -10.1% | 5.5% | -8.6%
C=CC(=O)N1CCC[C@@H](c2c(F)cc(C(N)=O)c3[nH]c4c(c23)CCC4)C1 [Compound 10-2, (S)-8-(1-acryloylpiperidin-3-yl)-7-fluoro-1,2,3,4-tetrahydrocyclo-penta[b]indole-5-carboxamide] | -28.4% | -90.5% | 10.6% | 20.5% | 22.8% | 14.1% | 20.8% | -17.7%
C=CC(=O)N1CCC[C@@H](c2c(F)cc(C(N)=O)c3[nH]c4c(c23)CC2(CC4)CC2)C1 [Compound 6-2, (S)-5-(1-acryloylpiperidin-3-yl)-6-fluoro-1,2,4,9-tetrahydrospiro[carbazole-3,1′-cyclopropane]-8-carboxamide] | -3.7% | -10.6% | -1.4% | -27.1% | 36.4% | -6% | 26.9% | 18.9%
